Experimental data: article PMC12655351, “Synthesis and Anticancer Activity Evaluation of New 5-((5-Nitrofuran-2-yl)allylidene)-2-thioxo-4-thiazolidinones” (Pharmaceuticals, 2025)

Assays:
Ovarian cancer = Ovarian cancer subpanel
SK-OV-3 = details: SK-OV-3, 48 h
MDA-MB-435 [1] = details: MDA-MB-435, 48 h
K-562 = test: cells; details: Homo sapiens, K562, 48 h
HT29 = details: HT29, 48 h
HL-60(TB) = test: NCI-60 SRB screen; details: HL-60(TB), 48 h
786-0 [2] = details: 786-0, 48 h
HOP-92 = test: NCI-60 SRB screen; details: HOP-92, 48 h
CAKI-1 = details: CAKI-1, 48 h
NCI-H460 = test: NCI-60 SRB screen; details: NCI-H460, 48 h
NCI/ADR-RES [3] = details: 48 h
RPMI-8226 = test: cells; details: Homo sapiens, RPMI-8226, 48 h
CCRF-CEM = details: 48 h
OVCAR-4 = test: cells; details: Homo sapiens, OVCAR-4, 48 h
UACC-257 = test: cells; details: Homo sapiens, UACC-257, 48 h
MDA-MB-231/ATCC = details: 48 h
HCT-15 = test: NCI-60 SRB screen; details: HCT-15, 48 h
IGROV1 = test: NCI-60 SRB screen
MDA-MB-435 [4] = test: cells; details: Homo sapiens, MDA-MB-435, 48 h
Breast cancer = Breast cancer subpanel
NCI/ADR-RES [5] = test: cells; details: Homo sapiens, 48 h
Prostate Cancer = Prostate Cancer subpanel
NCI-H23 = details: NCI-H23, 48 h
OVCAR-8 [6] = test: cells; details: Homo sapiens, OVCAR-8, 48 h
T-47D = details: 48 h
HS 578T = details: 48 h
UO-31 = test: cells; details: Homo sapiens, UO-31, 48 h
SF-295 = test: NCI-60 SRB screen; details: SF-295, 48 h
CNS cancer = test: cells; details: Homo sapiens
786-0 [7] = test: cells; details: Homo sapiens, 786-0, 48 h
SK-MEL-2 = test: NCI-60 SRB screen; details: SK-MEL-2, 48 h
OVCAR-8 [8] = details: OVCAR-8, 48 h
Melanoma [9] = test: cells; details: Homo sapiens
SR = details: 48 h
Colon cancer = test: NCI-60 SRB screen, subpanel; details: Colon cancer subpanel
Melanoma [10] = details: Melanoma subpanel

SMILES: O=C(O)CCN1C(=O)/C(=C/C=C/c2ccc([N+](=O)[O-])o2)SC1=S [12b, 3-((Z)-5-((E)-3-(5-Nitrofuran-2-yl)allylidene)-4-oxo-2-thioxothiazolidin-3-yl)propanoic acid]
- MG_MID TGI (Ovarian cancer): 5.84 µM
- TGI (SK-OV-3): 16.1 µM
- TGI (MDA-MB-435 [1]): 2.48 µM
- GI50 (K-562; K-562, 48 h): 0.34 µM
- CC50 (K-562; read-out: LC50): > 100 µM
- TGI (HT29): 12.5 µM
- TGI (HL-60(TB)): 3.30 µM
- GI50 (HL-60(TB); Homo sapiens, HL-60, 48 h): 1.28 µM
- growth GP (A498; A498, 10 μM, 48 h): -96.94%
- TGI (A498; A498, 48 h): 27.4 µM
- growth GP (OVCAR-3; OVCAR-3, 10 μM, 48 h): -96.70%
- TGI (OVCAR-3; OVCAR-3, 48 h): 3.01 µM
- TGI (786-0 [2]): 3.54 µM
- TGI (HOP-92): 3.50 µM
- GI50 (HOP-92; Homo sapiens): 1.83 µM
- CC50 (HOP-92; Homo sapiens, read-out: LC50, HOP-92, 48 h): 6.72 µM
- TGI (CAKI-1): 2.74 µM
- GI50 (NCI-H460; Homo sapiens): 1.33 µM
- CC50 (NCI-H460; Homo sapiens, read-out: LC50): 6.46 µM
- TGI (NCI-H460): 2.93 µM
- TGI (NCI/ADR-RES [3]): 4.28 µM
- GI50 (RPMI-8226): 1.23 µM
- CC50 (RPMI-8226; read-out: LC50): > 100 µM
- TGI (CCRF-CEM): 0.87 µM
- GI50 (OVCAR-4): 1.79 µM
- CC50 (OVCAR-4; read-out: LC50, OVCAR-4, 48 h): 8.07 µM
- GI50 (UACC-257): 1.81 µM
- CC50 (UACC-257; read-out: LC50, UACC-257, 48 h): 9.21 µM
- TGI (MDA-MB-231/ATCC): 3.24 µM
- TGI (HCT-15): 3.50 µM
- GI50 (IGROV1; Homo sapiens, IGROV-1, 48 h, IGROV1, 48 h): 1.43 µM
- CC50 (IGROV1; Homo sapiens, IGROV-1, 48 h, read-out: LC50, IGROV1, 48 h): 5.7 µM
- TGI (IGROV1; IGROV1, 48 h): 2.86 µM
- growth GP (SF-539; SF-539, 10 μM, 48 h): -96.95%
- TGI (SF-539; SF-539, 48 h): 3.65 µM
- GI50 (MDA-MB-435 [4]): 1.16 µM
- CC50 (MDA-MB-435 [4]; read-out: LC50, MDA-MB-435, 48 h): 5.32 µM
- MG_MID TGI (Breast cancer): 3.64 µM
- GI50 (NCI/ADR-RES [5]): 1.21 µM
- CC50 (NCI/ADR-RES [5]; read-out: LC50, NCI/ADR-RES, 48 h): 24.8 µM
- MG_MID TGI (Prostate Cancer): 10.6 µM
- TGI (NCI-H23): 3.37 µM
- GI50 (OVCAR-8 [6]): 1.84 µM
- CC50 (OVCAR-8 [6]; read-out: LC50, OVCAR-8, 48 h): 28.2 µM
- TGI (T-47D): 3.55 µM
- TGI (HS 578T): 7.93 µM
- GI50 (UO-31): 1.05 µM
- CC50 (UO-31; read-out: LC50, UO-31, 48 h): 4.84 µM
- GI50 (SF-295; Homo sapiens): 2.17 µM
- CC50 (SF-295; Homo sapiens, read-out: LC50, SF-295, 48 h): 16.3 µM
- TGI (SF-295): 5.21 µM
- GI50 (CNS cancer; read-out: MG_MID GI50): 1.62 µM
- CC50 (CNS cancer; read-out: MG_MID LC50): 12.3 µM
- GI50 (786-0 [7]): 1.38 µM
- GI50 (SK-MEL-2; Homo sapiens): 1.44 µM
- CC50 (SK-MEL-2; Homo sapiens, read-out: LC50, SK-MEL-2, 48 h): 5.68 µM
- TGI (SK-MEL-2): 2.86 µM
- TGI (OVCAR-8 [8]): 7.11 µM
- GI50 (Melanoma [9]; read-out: MG_MID GI50): 1.14 µM
- CC50 (Melanoma [9]; read-out: MG_MID LC50): 5.56 µM
- TGI (SR): 1.15 µM
- MG_MID TGI (Colon cancer): 2.93 µM
- MG_MID TGI (Melanoma [10]): 2.60 µM
